We go through two molecules from ChEMBL document CHEMBL1141746, “Three new diterpenes from the marine soft coral Lobophytum crassum” (1998).

Assay [1] addresses Human immunodeficiency virus type 1 reverse transcriptase (Human immunodeficiency virus 1) (UniProt Q72547). Briefly: Inhibition of HIV1 reverse transcriptase by ELISA.
The target of assay [2] is Tyrosine-protein kinase Lck (Homo sapiens) (UniProt P06239). The experiment in a line: Inhibition of tyrosine kinase lckp56 by ELISA.
In another assay the test system is Microbotryum violaceum. Briefly: Antimicrobial activity against Ustilago violacea at 50 ug by agar plate diffusion assay. The following applies: read-out: IZ. In kind it is functional.
The next assay relates to [Chlorella] fusca. The experiment in a line: Antimicrobial activity against Chlorella fusca at 50 ug by agar plate diffusion assay. In kind it is functional. Conditions: Scenedesmus fuscus; read-out: IZ.

Activity calls are given as the source filed them. The calls are words filed in the database; no cut-off is given here.

Sequence of Tyrosine-protein kinase Lck (Homo sapiens) (P06239 2-509 limits assumed): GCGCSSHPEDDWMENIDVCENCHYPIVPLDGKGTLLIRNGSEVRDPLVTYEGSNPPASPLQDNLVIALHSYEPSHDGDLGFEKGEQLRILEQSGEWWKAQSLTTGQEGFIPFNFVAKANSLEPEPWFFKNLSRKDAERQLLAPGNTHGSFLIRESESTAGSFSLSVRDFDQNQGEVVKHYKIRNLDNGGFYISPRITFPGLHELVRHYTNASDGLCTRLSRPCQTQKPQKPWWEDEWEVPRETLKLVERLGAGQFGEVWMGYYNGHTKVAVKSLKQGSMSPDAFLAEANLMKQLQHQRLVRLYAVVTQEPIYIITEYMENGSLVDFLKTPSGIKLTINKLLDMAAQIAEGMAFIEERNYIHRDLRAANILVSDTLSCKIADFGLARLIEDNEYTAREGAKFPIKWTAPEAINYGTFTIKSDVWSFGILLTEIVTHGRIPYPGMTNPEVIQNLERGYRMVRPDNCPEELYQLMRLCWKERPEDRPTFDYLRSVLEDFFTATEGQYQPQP

For the molecule `COC(=O)C(C)/C1=C/C=C(\C)CC[C@H]2O[C@]2(C)CC/C=C(\C)CC1` (some centres not stated), the outcome in assay [1] and in assay [2] was inactive. Moreover, in the assay on Microbotryum violaceum, the zone of inhibition at 50 µg/disc turned out to be 1 mm.
Turning to `CC1=C2CC/C(C)=C/CC[C@@]3(C)O[C@H]3CC/C(C)=C/[C@@H]2OC1`, the zone of inhibition at 50 µg/disc (in assay [Chlorella] fusca; in the assay on Microbotryum violaceum) was 3 mm in each case. The outcome in assay [1] and in assay [2] was inactive.
